Format in all cases: cell-based
Assay [1] has as its system HEK293 cells overexpressing APOL1 G2. The experiment in a line: APOL1 G2 HEK293 cell rescue assay (reversal of cell death caused by overexpression of APOL1). Particulars: Homo sapiens, HEK293, HEK293 overexpressing APOL1 G2; geometric mean of at least 2 assay runs; † = single assay run. A digest of the protocol: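 EC50 is the half-maximal effective concentration for reversing cell death driven by APOL1 G2 overexpression in HEK293 cells. Reported as geometric mean of at least 2 runs on separate days, each run averaging duplicate wells per plate; some values from a single run.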

Assay [2] concerns HEK293 clonal cell line overexpressing APOL1 G1. The experiment in a line: APOL1 G1 HEK293 cell rescue assay (Example B3). Particulars: geometric mean of at least 2 runs, † = single run, ¥ = concentration at 50% rescue estimated (no sigmoidal curve). The essentials:
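HEK293 clonal line overexpressing APOL1 G1; EC50 is half-maximal reversal of APOL1-induced cell death. Values are the geometric mean of ≥2 runs on separate days, each run the average of duplicate wells. Where no sigmoidal curve could be fitted, the concentration giving 50% rescue was estimated.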

The target in another assay is T1, APOL1 G2 (Homo sapiens, UniProt O14791, DEL388-389).
T1 construct: expressed in transfected cells; host or cells: HEK293 T-REx clonal line stably expressing GCaMP6f (HEK T-REx/GCaMP6f/APOL1 G2 K6.3), doxycycline induced
T1 sequence (O14791 with tags, fused parts or gaps DEL388-389): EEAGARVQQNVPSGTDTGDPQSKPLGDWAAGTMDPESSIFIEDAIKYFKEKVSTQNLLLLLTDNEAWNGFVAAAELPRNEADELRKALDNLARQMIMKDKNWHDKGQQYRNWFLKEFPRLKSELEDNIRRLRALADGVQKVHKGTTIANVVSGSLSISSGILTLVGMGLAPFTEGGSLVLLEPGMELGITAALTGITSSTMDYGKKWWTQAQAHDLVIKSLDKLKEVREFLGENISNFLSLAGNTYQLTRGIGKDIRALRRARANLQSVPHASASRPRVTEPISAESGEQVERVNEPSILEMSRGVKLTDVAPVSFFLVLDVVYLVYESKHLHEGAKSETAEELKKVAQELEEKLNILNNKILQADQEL
The experiment in a line: APOL1-mediated calcium transport (calcium influx) assay, HEK T-REx/GCaMP6f/APOL1 G2 K6.3 cells, FLIPR TETRA. The settings on record: prevention of calcium influx; geometric mean of at least 2 assay runs; † = average of a technical replicate from a single assay run. Here is the method: A HEK293 clonal cell line was generated to stably express GCaMP6f, a genetically encoded calcium indicator, and inducibly express APOL1 G2 (HEK T-REx/GCaMP6f/APOL1 G2 K6.3). Cells were maintained in the following standard complete medium: DMEM with 4.5 g/L glucose and sodium pyruvate (BioWhittaker, Lonza, BE12-614F), supplemented with 10% FBS Performance Plus (Gibco, 16000044), 1% penicillin-streptomycin (BioWhittaker, DE17-602E), 2 mM ultraglutamine-1 (BioWhittaker cat. BE 17-605/U1), 50 μg/mL Zeocin (InvivoGen, ant-zn), 2.5 μg/mL Blasticidin (InvivoGen, ant-bl-5), and 25 μg/mL Hygromycin (InvivoGen, ant-hg). Standard propagation conditions consisted of plating 9×10^6, 4×10^6, 2×10^6 cells in a T225 flasks to be processed after 2, 3, or 4 days, respectively.
A source plate was generated containing 20 serially diluted compounds in DMSO (duplicate 8-point dose response). Next, 0.8 μL of compounds were transferred from the source plate to a destination plate prefilled with 79.2 μL of Ca^2+ free Tyrode's buffer (130 mM NaCl, 5 mM KCl, 1 mM MgCl2, 5 mM NaHCO3, 20 mM HEPES at pH 7.4). The destination plate was placed on a plate shaker (5 seconds at 2000 rpm) to mix. […] All transfer and mixing steps were conducted with an CyBi®-Well dispenser.
Cells were split by gently washing with DPBS (Euroclone, ECB4004L), followed by a 5-minute incubation (humidified, 37° C. with 5% CO2) with trypsin-EDTA solution (Euroclone, ECB3052D). Detached cells were diluted with standard complete medium without selective agents, counted, and plated in a 384 MTP microplate (GR4332CPL, Twin Helix) (10,000 cells/well in 25 μl/well) using a MATRIX WellMate dispenser. Plates were placed into a humidified incubator (37° C. with 5% CO2) overnight. The following day, 20 μL of doxycycline (Sigma, D9891) at 20 ng/mL in standard complete medium was added to cells with a CyBi® Drop dispenser to induce APOL1 G2 expression. After a 6-hour incubation (humidified, 37° C. with 5% CO2), cells were washed 3 times with Ca^2+ free Tyrode's Buffer (130 mM NaCl, 5 mM KCl, 1 mM MgCl2, 5 mM NaHCO3, 20 mM HEPES at pH 7.4) using a BIOTEK Microplate washer, such that 10 μL of buffer remained in each well after the final wash. Assay plates were then stored at room temperature for 10 minutes. Next, 10 μL of diluted compounds were transferred to the assay plate from the 2× compound plate using a CyBi®-Well dispenser. Compound incubation was then carried out at room temperature for 10 minutes. The assay plate was transferred to the FLIPR^TETRA and 20 μL of 10 mM Ca^2+ (final concentration=5 mM) Tyrode's buffer was injected.
Unless otherwise specified, AC50 and values are reported as the geometric mean of at least 2 assay runs on separate days. Each run represents the average of a technical replicate, where each compound was assayed twice in the same plate. A superscript t symbol indicates a value from the average of a technical replicate from a single assay run, where each compound was assayed twice in the same plate.
The AC50 values in Table 39 below reflect the compound's ability to prevent calcium influx by inhibiting APOL1. […] Compounds in Table 39 are referred to by the corresponding Compound Number in Table 1, which is also referred to in the synthetic examples. When one or more of the numbered compounds are identified by stereochemistry (for example, (R)- or (S)-), the specific stereoisomer for which data is provided in Table 39 may be identified by the elution order of such compound as described in the synthetic examples. For example, Compounds 39 and 40 are associated with Step 5 of Example 13, where Compound 39 is the first eluting enantiomer, and Compound 40 is the second eluting enantiomer in the chiral separation of Compound 38. For Table 39 below, n/a represents “not available”.

Where [3] appears, read: Homo sapiens, HEK293, HEK293 clonal line overexpressing APOL1 G1.

The structures appear in SMILES notation. Where only a bound is given, the exact number is not on record here.

As a reminder, the EC50 is the concentration needed to bring the measured effect to its halfway point. As a reminder, the AC50 is the concentration at which the activity in the assay is half-maximal.

Regarding `CNC(=O)N1Cc2ccc(OCCN3CCC4(CC3)C(=O)Nc3ccc(Cl)cc34)cc2C1` [Compound 61, 5-(2-{5-chloro-2-oxo-1,2-dihydrospiro[indole-3,4′-piperidin]-1′-yl}ethoxy)-N-methyl-2,3-dihydro-1H-isoindole-2-carboxamide], the results for the EC50 in assay [1] and in assay [2] (setting [3]) were 267 nM and 632 nM, respectively. Further, the AC50 at APOL1 G2 came to 686 nM.
Turning to `CN1C(=O)C(C)(C)c2cc(OCCN3CCC4(CC3)C(=O)Nc3ccc(C#N)cc34)ccc21` [Compound 83, 2-oxo-1′-{2-[(1,3,3-trimethyl-2-oxo-2,3-dihydro-1H-indol-5-yl)oxy]ethyl}-1,2-dihydrospiro[indole-3,4′-piperidine]-5-carbonitrile], the EC50 in assay [1] is 247 nM; in assay [2] (setting [3]), 788 nM. The AC50 at APOL1 G2 turned out to be 718 nM.
As to `CN1C(=O)C2(CCN(CCOc3ccc4ncn(C)c(=O)c4c3)CC2)c2ccccc21` [Compound 29, 1-methyl-1′-{2-[(3-methyl-4-oxo-3,4-dihydroquinazolin-6-yl)oxy]ethyl}-1,2-dihydrospiro[indole-3,4′-piperidin]-2-one], the EC50 in assay [1] was 1420 nM; in assay [2] (setting [3]), 5560 nM. In addition, the AC50 at APOL1 G2 was determined as 586 nM.
The corresponding values for `CNC(=O)N1CCc2cc(OCCN3CCC4(CC3)C(=O)Nc3ccc(C#N)cc34)ccc2C1` [Compound 246, 6-(2-{5-cyano-2-oxo-1,2-dihydrospiro[indole-3,4′-piperidin]-1′-yl}ethoxy)-N-methyl-1,2,3,4-tetrahydroisoquinoline-2-carboxamide] are 562 nM, 4860 nM and 1340 nM.
Consider `N#Cc1ccc2c(c1)C1(CCN(CCOc3ccc(C4(C(=O)N5CCC5)COC4)cc3)CC1)C(=O)N2` [Compound 253, 1′-(2-{4-[3-(azetidine-1-carbonyl)oxetan-3-yl]phenoxy}ethyl)-2-oxo-1,2-dihydrospiro[indole-3,4′-piperidine]-5-carbonitrile], for which the EC50 was 608 nM in assay [1] and approximately 4400 nM in assay [2] (setting [3]). Moreover, the AC50 at APOL1 G2 came out at 1220 nM.
In the case of `N#Cc1ccc2c(c1)C1(CCN(CCOc3ccc4c(c3)CCN3C(=O)CCC43)CC1)C(=O)N2` (single isomer, unassigned) [Compound 125, (S) or (R)-2-oxo-1′-[2-({3-oxo-1H,2H,3H,5H,6H,10bH-pyrrolo[2,1-a]isoquinolin-8-yl}oxy)ethyl]-1,2-dihydrospiro[indole-3,4′-piperidine]-5-carbonitrile], the EC50 was 355 nM in assay [1] and more than 4860 nM in assay [2] (HEK293 clonal line overexpressing APOL1 G1). Moreover, at APOL1 G2, the AC50 worked out at 729 nM.
Turning to `CNC(=O)c1ccc(OCCN2CCC3(CC2)C(=O)Nc2ccc(Cl)cc23)cc1` [Compound 52, 4-(2-{5-chloro-2-oxo-1,2-dihydrospiro[indole-3,4′-piperidin]-1′-yl}ethoxy)-N-methylbenzamide], the results for the EC50 in assay [1] and in assay [2] (setting [3]) were 214 nM and 1060 nM, respectively. In addition, the AC50 at APOL1 G2 amounted to 615 nM.
For the compound `CC(COc1ccc2c(c1)CCC(=O)N2C)N1CCC2(CC1)C(=O)Nc1ccc(C#N)cc12` (stereo not drawn) [Compound 202, 1′-{1-[(1-methyl-2-oxo-1,2,3,4-tetrahydroquinolin-6-yl)oxy]propan-2-yl}-2-oxo-1,2-dihydrospiro[indole-3,4′-piperidine]-5-carbonitrile], the EC50 was 315 nM in assay [1] and 2550 nM in assay [2] (setting [3]). In addition, the AC50 at APOL1 G2 was found to be 1720 nM.
Regarding `CS(=O)(=O)CCCS(=O)(=O)c1ccc(OCCN2CCC3(CC2)C(=O)Nc2ccc(Cl)cc23)cc1` [Compound 41, 5-chloro-1′-{2-[4-(3-methanesulfonylpropanesulfonyl)phenoxy]ethyl}-1,2-dihydrospiro[indole-3,4′-piperidin]-2-one], the EC50 was 97 nM in assay [1] and 307 nM in assay [2] (setting [3]). At APOL1 G2, the AC50 is 709 nM.
As for `[2H]C([2H])([2H])N1C(=O)C2(CCN(CCOc3cnc(C(C)S(C)(=O)=O)nc3)CC2)c2cc(Cl)ccc21` (stereo not drawn) [Compound 425, 5-chloro-1′-(2-{[2-(1-methanesulfonylethyl)pyrimidin-5-yl]oxy}ethyl)-1-(^2H3)methyl-1,2-dihydrospiro[indole-3,4′-piperidin]-2-one], the figures for the EC50 in assay [1] and in assay [2] (setting [3]) were 90.6 nM and 271 nM, respectively. On APOL1 G2, the concentration at half-maximal activity (AC50) is 1100 nM.
Turning to `CS(=O)(=O)C1(c2ccc(OCCN3CCC4(CC3)C(=O)Nc3ccc(C#N)cc34)cc2)CC2(COC2)C1` [Compound 183, 1′-[2-(4-{6-methanesulfonyl-2-oxaspiro[3.3]heptan-6-yl}phenoxy)ethyl]-2-oxo-1,2-dihydrospiro[indole-3,4′-piperidine]-5-carbonitrile], the EC50 in assay [1] was 702 nM; in assay [2] (setting [3]), approximately 5800 nM. In addition, on APOL1 G2, the AC50 stood at 1520 nM.
On to `CC1(Oc2ncc(OCCN3CCC4(CC3)C(=O)Nc3ccc(C#N)cc34)cn2)COC1` [Compound 173, 1′-[2-({2-[(3-methyloxetan-3-yl)oxy]pyrimidin-5-yl}oxy)ethyl]-2-oxo-1,2-dihydrospiro[indole-3,4′-piperidine]-5-carbonitrile], for which the 50% effective concentration (EC50) in assay [1] was 289 nM; in assay [2] (setting [3]) it was 1160 nM. The AC50 at APOL1 G2 was found to be 908 nM.
`O=C1Nc2ccc(Cl)cc2C12CCN(CCOc1cnc(C3(O)CCC3)nc1)CC2` [Compound 430, 5-chloro-1′-(2-{[2-(1-hydroxycyclobutyl)pyrimidin-5-yl]oxy}ethyl)-1,2-dihydrospiro[indole-3,4′-piperidin]-2-one]: the EC50 in assay [1] was 72.9 nM; in assay [2] (setting [3]), 123 nM. Also, the AC50 on APOL1 G2 is 518 nM.
`CC(C)(C(N)=O)c1ccc(OCCN2CCC3(CC2)C(=O)Nc2ccc(C#N)cc23)cc1` [Compound 257, 2-[4-(2-{5-cyano-2-oxo-1,2-dihydrospiro[indole-3,4′-piperidin]-1′-yl}ethoxy)phenyl]-2-methylpropanamide]: the figures for the EC50 in assay [1] and in assay [2] (setting [3]) were 256 nM and approximately 1000 nM, respectively. Besides, the AC50 at APOL1 G2 came out at 974 nM.

The values above are taken from patent US12344610B2, “APOL1 inhibitors and methods of use” (Maze Therapeutics, Inc., priority 2022, dated 2025).
